Data reported in patent publication US20150329558A1, “FUSED HETEROCYCLIC COMPOUNDS AS ION CHANNEL MODULATORS” (Gilead Sciences, Inc., priority 2011, published 2015).

molecular target: wild-type human cardiac sodium channel, hNav1.5 (late INa) (Homo sapiens, UniProt Q14524); assay: Late INa screening assay (QPatch whole cell patch clamp); format: cell-based; details: percent block of late INa, compound at 1 μM, 10 μM Tefluthrin, HEK293 hNav1.5; read-out: Late INa 1 μM
Protocol: The late sodium current (Late INa) and peak sodium current (Peak INa) assays are performed on an automated electrophysiology platform, QPatch 16× (Sophion Bioscience, Copenhagen, Denmark), which uses the whole cell patch clamp technique to measure currents through the cell membrane of up to 16 cells at a time. The assay uses an HEK293 (human embryonic kidney) cell line heterologously expressing the wild-type human cardiac sodium channel, hNav1.5, purchased from Millipore (Billerica, Mass.). No beta subunits were coexpressed with the Na channel alpha subunit. Cells are maintained with standard tissue culture procedures and stable channel expression is maintained with 400 μg/mL Geneticin in the culture medium. […] Experiments are carried out at 23-25° C. For both the Late INa and Peak INa assays, series resistance compensation is set to 100% and series resistance and whole-cell compensation are performed automatically. Currents are digitized at 25 kHz and low-pass filtered at 12 kHz and 10 kHz for the late and peak INa assays, respectively. Currents through open sodium channels are automatically recorded and stored in the Sophion Bioscience Oracle database (Sophion Bioscience, Copehagen, Denmark). Analysis is performed using QPatch Assay and database software and data are compiled in Excel. Compound stocks are routinely made by the Gilead Sample Bank in plastic vials to 10 mM in dimethyl sulfoxide (DMSO). In some cases, when compounds are not soluble in DMSO, they are made in 100% ethanol. Stocks are sonicated as necessary. […] The intracellular solution used to perfuse the inside of the cells for both the Late INa and Peak INa assays contains: 120 mM CsF, 20 mM CsCl, 5 mM EGTA, 5 mM HEPES and pH adjusted to 7.4 with CsOH. Compounds are diluted in extracellular solution to 1 μM in glass vials and then transferred to glass well plates before robotic addition to the cells. […] For the Late INa assay, sodium channels are activated every 10 seconds (0.1 Hz) by depolarizing the cell membrane to −20 mV for 250 milliseconds (ms) from a holding potential of −120 mV. In response to a −20 mV voltage step, typical hNav1.5 sodium currents activate rapidly to a peak negative current and then inactivate nearly completely within 3-4 ms. All compounds were tested to determine their activity in blocking the late sodium current. Late INa was generated by adding 10 μM Tefluthrin (pyrethroid) to the extracellular solution while recording Na currents. To confirm the block of late INa observed using the automated screening method, a second late INa enhancer (ATX-II) and the manual patch clamp method were used. ATX-II and tefluthrin occupy distinct, non-overlapping binding sites and modify Na^+ channel function differently to increase late INa. […] For the purposes of the screening, late INa is defined as the mean current between 225 ms and 250 ms after stepping to −20 mV to activate Na channels. […] Results are reported as percent block of late INa.

Sequence of wild-type human cardiac sodium channel, hNav1.5 (late INa) (Q14524 whole entry): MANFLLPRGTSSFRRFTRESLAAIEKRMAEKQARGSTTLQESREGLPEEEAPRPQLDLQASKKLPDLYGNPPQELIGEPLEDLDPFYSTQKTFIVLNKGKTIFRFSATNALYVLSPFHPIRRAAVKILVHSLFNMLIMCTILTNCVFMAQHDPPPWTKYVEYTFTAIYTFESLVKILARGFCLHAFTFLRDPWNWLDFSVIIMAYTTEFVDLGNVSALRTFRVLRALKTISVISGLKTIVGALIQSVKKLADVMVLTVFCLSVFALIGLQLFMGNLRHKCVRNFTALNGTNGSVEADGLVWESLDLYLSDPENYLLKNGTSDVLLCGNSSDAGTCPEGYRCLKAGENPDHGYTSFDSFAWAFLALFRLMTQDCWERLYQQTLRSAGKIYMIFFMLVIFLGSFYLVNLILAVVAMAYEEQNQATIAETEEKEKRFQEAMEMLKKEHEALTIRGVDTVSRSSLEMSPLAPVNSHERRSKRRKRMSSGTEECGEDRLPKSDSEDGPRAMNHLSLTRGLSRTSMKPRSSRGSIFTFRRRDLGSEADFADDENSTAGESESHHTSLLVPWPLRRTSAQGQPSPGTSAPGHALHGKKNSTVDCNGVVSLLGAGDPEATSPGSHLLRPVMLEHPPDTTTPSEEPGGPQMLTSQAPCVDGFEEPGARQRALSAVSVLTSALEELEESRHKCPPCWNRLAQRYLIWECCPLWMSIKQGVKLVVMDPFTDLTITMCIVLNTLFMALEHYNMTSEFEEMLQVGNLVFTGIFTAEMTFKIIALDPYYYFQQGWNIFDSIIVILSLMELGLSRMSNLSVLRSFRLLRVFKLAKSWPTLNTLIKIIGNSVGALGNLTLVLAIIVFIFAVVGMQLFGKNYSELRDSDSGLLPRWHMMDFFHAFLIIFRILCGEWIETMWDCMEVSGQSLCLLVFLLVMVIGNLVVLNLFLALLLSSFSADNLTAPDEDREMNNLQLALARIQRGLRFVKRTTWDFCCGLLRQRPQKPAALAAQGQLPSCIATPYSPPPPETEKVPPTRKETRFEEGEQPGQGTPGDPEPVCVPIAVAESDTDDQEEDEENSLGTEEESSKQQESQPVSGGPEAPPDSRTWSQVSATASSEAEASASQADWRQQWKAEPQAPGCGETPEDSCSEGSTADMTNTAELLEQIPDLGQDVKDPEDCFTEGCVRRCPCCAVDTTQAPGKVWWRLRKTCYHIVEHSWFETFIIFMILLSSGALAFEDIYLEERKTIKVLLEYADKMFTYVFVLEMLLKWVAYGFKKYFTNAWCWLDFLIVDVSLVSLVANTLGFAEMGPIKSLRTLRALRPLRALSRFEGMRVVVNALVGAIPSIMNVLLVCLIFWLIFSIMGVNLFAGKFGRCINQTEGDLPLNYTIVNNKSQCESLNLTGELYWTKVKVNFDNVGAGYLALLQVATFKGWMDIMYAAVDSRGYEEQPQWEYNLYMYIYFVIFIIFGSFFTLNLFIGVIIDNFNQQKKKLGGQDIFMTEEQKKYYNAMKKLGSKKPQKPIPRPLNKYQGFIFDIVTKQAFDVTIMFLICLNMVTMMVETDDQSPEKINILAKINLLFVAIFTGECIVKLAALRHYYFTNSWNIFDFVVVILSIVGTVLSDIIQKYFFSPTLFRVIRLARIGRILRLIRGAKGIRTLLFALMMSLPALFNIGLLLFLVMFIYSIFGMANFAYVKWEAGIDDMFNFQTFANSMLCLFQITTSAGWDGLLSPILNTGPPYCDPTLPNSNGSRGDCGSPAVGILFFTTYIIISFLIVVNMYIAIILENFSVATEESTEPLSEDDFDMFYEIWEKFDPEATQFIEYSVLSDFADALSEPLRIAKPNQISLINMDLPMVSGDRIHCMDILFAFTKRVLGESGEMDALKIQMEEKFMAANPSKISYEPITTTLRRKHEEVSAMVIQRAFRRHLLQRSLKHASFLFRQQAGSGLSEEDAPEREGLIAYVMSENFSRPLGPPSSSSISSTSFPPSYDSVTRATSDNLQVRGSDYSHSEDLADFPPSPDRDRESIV

Going from O=C(Cc1ncccn1)N1CCc2ccc(-c3ccc(C(F)(F)F)cc3)cc2C1 [IX-30, 2-(pyrimidin-2-yl)-1-(7-(4-(trifluoromethyl)phenyl)-3,4-dihydroisoquinolin-2(1H)-yl)ethanone] to O=C(c1ccncn1)N1CCc2ccc(-c3ccc(C(F)(F)F)cc3)cc2C1 [IX-32, pyrimidin-4-yl(7-(4-(trifluoromethyl)phenyl)-3,4-dihydroisoquinolin-2(1H)-yl)methanone], the inhibition at 1 µM rises from 20% to 29%.

Compared with O=C(c1ncccn1)N1CCc2ccc(-c3ccc(Cl)c(F)c3)cc2C1 [IX-24, (7-(4-chloro-3-fluorophenyl)-3,4-dihydroisoquinolin-2(1H)-yl)(pyrimidin-2-yl)methanone], O=C(c1[nH]cnc1F)N1CCc2ccc(-c3ccc(C(F)(F)F)cc3)cc2C1 [IX-59, (4-fluoro-1H-imidazol-5-yl)(7-(4-(trifluoromethyl)phenyl)-3,4-dihydroisoquinolin-2(1H)-yl)methanone] is lower in inhibition at 1 µM: 19% for the first, 17% for the second.

Compared with O=c1c2cc(-c3ccc(OC(F)(F)F)cc3)ccc2nnn1C1CCN(c2ncccn2)CC1 [II-39, 3-(1-(pyrimidin-2-yl)piperidin-4-yl)-6-(4-(trifluoromethoxy)phenyl)benzo[d][1,2,3]triazin-4(3H)-one], O=c1c2cc(-c3ccc(OC(F)(F)F)cc3)ccc2nnn1OCc1ncccn1 [II-56, 3-(pyrimidin-2-ylmethoxy)-6-(4-(trifluoromethoxy)phenyl)benzo[d][1,2,3]triazin-4(3H)-one] is higher in inhibition at 1 µM: 16% for the first, 22% for the second.

First: CCOC(=O)Cn1cc(C(=O)N2CCc3ccc(-c4ccc(C(F)(F)F)cc4)cc3C2)nn1 [IX-119, ethyl 2-(4-(7-(4-(trifluoromethyl)phenyl)-1,2,3,4-tetrahydroisoquinoline-2-carbonyl)-1H-1,2,3-triazol-1-yl)acetate]
Second: Cc1cc(C(=O)N2CCc3ccc(-c4ccc(C(F)(F)F)cc4)cc3C2)nc(N)n1 [IX-34, (2-amino-6-methylpyrimidin-4-yl)(7-(4-(trifluoromethyl)phenyl)-3,4-dihydroisoquinolin-2(1H)-yl)methanone]
The inhibition at 1 µM of the first is lower: 15% for the first, 16% for the second.

Compared with O=C(NCc1ccccc1)N1CCc2ccc(-c3ccc(C(F)(F)F)cc3)cc2C1 [IX-41, N-benzyl-7-(4-(trifluoromethyl)phenyl)-3,4-dihydroisoquinoline-2(1H)-carboxamide], O=C(Nc1ccccc1)N1CCc2ccc(-c3ccc(C(F)(F)F)cc3)cc2C1 [IX-42, N-phenyl-7-(4-(trifluoromethyl)phenyl)-3,4-dihydroisoquinoline-2(1H)-carboxamide] is lower in inhibition at 1 µM: 27% for the first, 25% for the second.

First: O=C1c2cc(-c3ccc(OC(F)(F)F)cc3)ccc2OCN1Cc1ccccc1 [VIII-23, 3-benzyl-6-(4-(trifluoromethoxy)phenyl)-2H-benzo[e][1,3]oxazin-4(3H)-one]
Second: O=c1c2cc(-c3ccc(OC(F)(F)F)cc3)ccc2nnn1Cc1ccccc1 [II-42, 3-benzyl-6-(4-(trifluoromethoxy)phenyl)benzo[d][1,2,3]triazin-4(3H)-one]
The inhibition at 1 µM of the first is higher: 48% for the first, 23% for the second.

First: Cn1cnc(S(=O)(=O)N2CCc3ccc(-c4ccc(C(F)(F)F)cc4)cc3C2)c1 [IX-98, 2-(1-methyl-1H-imidazol-4-ylsulfonyl)-7-(4-(trifluoromethyl)phenyl)-1,2,3,4-tetrahydroisoquinoline]
Second: O=C(c1ccn[nH]1)N1CCc2ccc(-c3ccc(C(F)(F)F)cc3)cc2C1 [IX-36, (1H-pyrazol-5-yl)(7-(4-(trifluoromethyl)phenyl)-3,4-dihydroisoquinolin-2(1H)-yl)methanone]
The inhibition at 1 µM of the first is higher: 27% for the first, 20% for the second.

Compared with O=c1c2cc(-c3ccc(OC(F)(F)F)cc3)ccc2cnn1Cc1cc(-c2ccccn2)on1 [III-41, 2-((5-(pyridin-2-yl)isoxazol-3-yl)methyl)-7-(4-(trifluoromethoxy)phenyl)phthalazin-1 (2H)-one], Cc1nonc1Cn1ncc2ccc(-c3ccc(OC(F)(F)F)cc3)cc2c1=O [III-11, 2-((4-methyl-1,2,5-oxadiazol-3-yl)methyl)-7-(4-(trifluoromethoxy)phenyl)phthalazin-1 (2H)-one] is higher in inhibition at 1 µM: 24% for the first, 30% for the second.

Compared with O=c1c2cc(-c3ccc(C(F)(F)F)nc3)ccc2nnn1CCOc1ncccn1 [Compound V-11, 3-(2-(pyrimidin-2-yloxy)ethyl)-6-(6-(trifluoromethyl)pyridin-3-yl)benzo[d][1,2,3]triazin-4(3H)-one], Cc1nc(Cn2nnc3ccc(-c4ccc(OCC(F)(F)F)nc4)cc3c2=O)no1 [Compound V-2, 3-((5-methyl-1,2,4-oxadiazol-3-yl)methyl)-6-(6-(2,2,2-trifluoroethoxy)pyridin-3-yl)benzo[d][1,2,3]triazin-4(3H)-one] is lower in inhibition at 1 µM: 22% for the first, 17% for the second.

Going from O=C(NC1CC1)N1CCc2ccc(-c3ccc(C(F)(F)F)cc3)cc2C1 [IX-44, N-cyclopropyl-7-(4-(trifluoromethyl)phenyl)-3,4-dihydroisoquinoline-2(1H)-carboxamide] to O=C(N1CCc2ccc(-c3ccc(C(F)(F)F)cc3)cc2C1)N1CC(F)C1 [IX-95, (3-fluoroazetidin-1-yl)(7-(4-(trifluoromethyl)phenyl)-3,4-dihydroisoquinolin-2(1H)-yl)methanone], the inhibition at 1 µM falls from 27% to 25%.

First: N#CC1(n2nnc3ccc(-c4ccc(OC(F)(F)F)cc4)cc3c2=O)CC1 [II-33, 1-(4-oxo-6-(4-(trifluoromethoxy)phenyl)benzo[d][1,2,3]triazin-3 (4H)-yl)cyclopropanecarbonitrile]
Second: O=c1c2cc(-c3ccc(OC(F)(F)F)cc3)ccc2nnn1OCc1cccnc1 [II-59, 3-(pyridin-3-ylmethoxy)-6-(4-(trifluoromethoxy)phenyl)benzo[d][1,2,3]triazin-4(3H)-one]
The inhibition at 1 µM of the first is higher: 26% for the first, 22% for the second.

Compared with O=c1c2cc(-c3ccc(OC(F)(F)F)cc3)ccc2nnn1Cc1cc(-c2ccccc2)no1 [II-10, 3-((3-phenylisoxazol-5-yl)methyl)-6-(4-(trifluoromethoxy)phenyl)benzo[d][1,2,3]triazin-4(3H)-one], Cn1c(CCn2ncc3ccc(-c4ccc(OC(F)(F)F)cc4)cc3c2=O)nc2ccccc21 [III-25, 2-(2-(1-methyl-1H-benzo[d]imidazol-2-yl)ethyl)-7-(4-(trifluoromethoxy)phenyl)phthalazin-1 (2H)-one] is lower in inhibition at 1 µM: 21% for the first, 16% for the second.

Going from Nc1n[nH]c(C(=O)N2CCc3ccc(-c4ccc(C(F)(F)F)cc4)cc3C2)n1 [IX-111, (3-amino-1H-1,2,4-triazol-5-yl)(7-(4-(trifluoromethyl)phenyl)-3,4-dihydroisoquinolin-2(1H)-yl)methanone] to O=C(N1CCC1)N1CCc2ccc(-c3ccc(C(F)(F)F)cc3)cc2C1 [IX-88, azetidin-1-yl(7-(4-(trifluoromethyl)phenyl)-3,4-dihydroisoquinolin-2(1H)-yl)methanone], the inhibition at 1 µM falls from 27% to 25%.

First: O=C(N1CCc2ccc(-c3ccc(C(F)(F)F)cc3)cc2C1)N1CCC(F)C1 (centres unmarked) [IX-94, (3-fluoropyrrolidin-1-yl)(7-(4-(trifluoromethyl)phenyl)-3,4-dihydroisoquinolin-2(1H)-yl)methanone]
Second: CC1CN(C(=O)N2CCc3ccc(-c4ccc(C(F)(F)F)cc4)cc3C2)C1 [IX-107, (3-methylazetidin-1-yl)(7-(4-(trifluoromethyl)phenyl)-3,4-dihydroisoquinolin-2(1H)-yl)methanone]
The inhibition at 1 µM of the first is higher: 33% for the first, 24% for the second.

First: O=C(N1CCc2ccc(-c3ccc(C(F)(F)F)cc3)cc2C1)N1CC(F)(F)C1 [IX-92, (3,3-difluoroazetidin-1-yl)(7-(4-(trifluoromethyl)phenyl)-3,4-dihydroisoquinolin-2(1H)-yl)methanone]
Second: O=C(N1CCOCC1)N1CCc2ccc(-c3ccc(C(F)(F)F)cc3)cc2C1 [IX-52, morpholino(7-(4-(trifluoromethyl)phenyl)-3,4-dihydroisoquinolin-2(1H)-yl)methanone]
The inhibition at 1 µM of the first is lower: 17% for the first, 26% for the second.

Going from O=C(N1CCCC1)N1CCc2ccc(-c3ccc(OC(F)(F)F)cc3)cc2C1 [IX-122, pyrrolidin-1-yl(7-(4-(trifluoromethoxy)phenyl)-3,4-dihydroisoquinolin-2(1H)-yl)methanone] to O=C1c2cc(-c3ccc(C(F)(F)F)cc3)ccc2OCN1Cc1ncccn1 [VIII-19, 3-(pyrimidin-2-ylmethyl)-6-(4-(trifluoromethyl)phenyl)-2H-benzo[e][1,3]oxazin-4(3H)-one], the inhibition at 1 µM rises from 36% to 61%.
